Source: patent publication US10570179B2, “Substituted urea depsipeptide analogs as activators of the CLPP endopeptidase” (priority 2016, dated 2020)
In brackets after ≈: the same amount, converted by molar mass. Where two headings read alike, the source gives them in different places. Numbered stars: 1 amine (or outer) side, 2 acyl side, 3 side chain; on linkers, the order of the positions; unused ones are H or OH. Bridge positions count the residues as written; N and C are the ends. Square brackets hold non-standard residues; d marks the D form. Peptide text beside a SMILES is read from it. * marks the point of attachment. X5 = O=C([C@@H]1C[C@@H](OP(=O)(O)O)CN1[*:1])[*:2]; Piperazine(2S-CO,4-Me) = CN1CCN[C@H](C(=O)O)C1; Phe(3-Cl) = N[C@@H](Cc1cccc(Cl)c1)C(=O)O; Morpholine(3S-CO) = O=C(O)[C@@H]1COCCN1; Phe(3-Me) = Cc1cccc(C[C@H](N)C(=O)O)c1; NH(4-Cl-2-F-phenyl) = Fc1cc(Cl)ccc1N*; Pro(4R-Me) = C[C@H]1CN[C@H](C(=O)O)C1; Hyp = O=C(O)[C@@H]1C[C@@H](O)CN1; NH(4-Me-phenyl) = Cc1ccc(N*)cc1; aThr = C[C@H](O)[C@H](N)C(=O)O; Pip = O=C(O)[C@@H]1CCCCN1; X3 = c1cc2c(cc1N*)OCCO2; CO = O=C([*:1])[*:2]

Legend:
[1] = molecular target: T1, Sa-ClpP (Staphylococcus aureus, UniProt Q2G036); assay: ADEP displacement fluorescence polarization assay; format: binding, S. aureus; details: displacement of FP probe ADEP 2591 from Sa-ClpP
T1 construct: made in house; host or cells: E. coli BL21 (DE3)
T1 sequence (Q2G036 whole entry): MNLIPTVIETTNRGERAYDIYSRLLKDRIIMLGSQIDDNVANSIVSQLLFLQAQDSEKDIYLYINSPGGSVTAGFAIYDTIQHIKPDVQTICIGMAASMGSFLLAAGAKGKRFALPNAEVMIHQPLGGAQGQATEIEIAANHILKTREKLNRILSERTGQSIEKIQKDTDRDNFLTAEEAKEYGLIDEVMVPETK
Procedure, shortened: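 Master mix of 15 μM Sa-ClpP and 50 nM TAMRA-labelled ADEP 2591 probe in Tris-HCl pH 8.0, 2% DMSO, was pre-equilibrated 1 h at RT, then compounds were added and incubated 120 min at RT. Polarization (ex 530, em 579 nm, mP) was normalised to 200 μM ADEP 2378 and DMSO controls and fitted by four-parameter regression, in triplicate.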

[2] = system: E. faecails; assay: Minimal inhibitory concentration, microbroth dilution; format: cell-based; details: Enterococcus faecalis
Procedure, shortened: (§1)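 MICs were determined by CLSI broth microdilution, using two-fold compound dilutions from a final 200 μM and about 10^5 cfu/mL inoculum. Plates were incubated aerobically at 37 °C overnight. The MIC was read visually as the lowest concentration preventing growth.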

[3] = system: MRSA NRS70; assay: as above; format: cell-based; details: Staphylococcus aureus
Procedure, shortened: as §1

[4] = system: S. aureus ATCC 29213; assay: as above; format: cell-based; details: Staphylococcus aureus
Procedure, shortened: as §1

[5] = system: S. aureus USA 300; assay: as above; format: cell-based; details: Staphylococcus aureus
Procedure, shortened: as §1

[6] = Microsomal metabolic stability; format: in vitro ADME, mouse
Procedure, shortened: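 CD-1 mouse liver microsomes (0.6381 mg/mL protein microsomal solution, 0.1 M potassium phosphate pH 7.4 with EDTA) were incubated with compound and an NADPH-regenerating system at 37 °C, in triplicate. Acetonitrile/warfarin quench at 0, 15, 30, 60, 120 and 240 min, then LCMS. Half-life came from a first-order least-squares fit.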

[7] = MIC, read-out: Minimal Inhibitory Concentrations (μM) E. faecails
[8] = MIC, read-out: Minimal Inhibitory Concentrations (μM) MRSA NRS70
[9] = ATCC29213, MIC, read-out: Minimal Inhibitory Concentrations (μM) S. aureus ATCC 29213
[10] = USA300, MIC, read-out: Minimal Inhibitory Concentrations (μM) S. aureus USA 300
[11] = read-out: Minimal Inhibitory Concentrations (μM) E. faecails, MIC
[12] = read-out: Minimal Inhibitory Concentrations (μM) MRSA NRS70, MIC
[13] = ATCC29213, read-out: Minimal Inhibitory Concentrations (μM) S. aureus ATCC 29213, MIC
[14] = USA300, read-out: Minimal Inhibitory Concentrations (μM) S. aureus USA 300, MIC
[15] = microsomal metabolic stability half-life, mouse liver microsomes

| SMILES | IC50 [1] [µM] | MIC [2, 7] [µM] | MIC [3, 8] [µM] | MIC [4, 9] [µM] | MIC [5, 10] [µM] | Mouse ([6]; CD-1, mouse, pH 7.4) | MIC [2, 11] [µM] | MIC [3, 12] [µM] | MIC [4, 13] [µM] | MIC [5, 14] [µM] | Mouse [6, 15] |
| --- | --- | --- | --- | --- | --- | --- | --- | --- | --- | --- | --- |
| Cc1cccc(C[C@H](NC(=O)Nc2ccc3c(c2)OCCO3)C(=O)N[C@@H]2C(=O)N3C[C@H](O)C[C@H]3C(=O)N3CCOC[C@H]3C(=O)N[C@@H](C)C(=O)N3C[C@H](C)C[C@H]3C(=O)O[C@H]2C)c1 [Compound 27, (S)-2-(3-(2,3-DIHYDROBENZO[B][1,4]DIOXIN-6-YL)UREIDO)-N-((6AS,8R,12S,13S,15AS,17R,21S,23AS)-8-HYDROXY-13,17,21-TRIMETHYL-6,11,15,20,23-PENTAOXOOCTADECAHYDRO-6H,11H,15H-[1,4]OXAZINO[3,4-I]DIPYRROLO[2,1-C:2′,1′-L][1]OXA[4,7,10,13]TETRAAZACYCLOHEXADECIN-12-YL)-3-(M-TOLYL)PROPANAMIDE] ({X3-CO}-[Phe(3-Me)][aThr][Hyp][Morpholine(3S-CO)]A[Pro(4R-Me)]; ester 2-C) | 5.13 ± 0.16 | 2.5 (≈ 2.12 µg/mL) | 10 (≈ 8.48 µg/mL) | 10 (≈ 8.48 µg/mL) | 20 (≈ 17 µg/mL) | 0.79 ± .795 h | – | – | – | – | – |
| Cc1cccc(C[C@H](NC(=O)Nc2ccc3c(c2)OCCO3)C(=O)N[C@@H]2C(=O)N3C[C@H](O)C[C@H]3C(=O)N3CCCC[C@H]3C(=O)N[C@@H](C)C(=O)N3C[C@H](C)C[C@H]3C(=O)O[C@H]2C)c1 [Compound 28, (S)-2-(3-(2,3-DIHYDROBENZO[B][1,4]DIOXIN-6-YL)UREIDO)-N-((2R,6S,8AS,14AS,16R,20S,21S,23AS)-16-HYDROXY-2,6,21-TRIMETHYL-5,8,14,19,23-PENTAOXOOCTADECAHYDRO-1H,5H,14H,19H-PYRIDO[2,1-I]DIPYRROLO[2,1-C:2′,1′-L][1]OXA[4,7,10,13]TETRAAZACYCLOHEXADECIN-20-YL)-3-(M-TOLYL)PROPANAMIDE] ({X3-CO}-[Phe(3-Me)][aThr][Hyp][Pip]A[Pro(4R-Me)]; ester 2-C) | 4.86 ± 0.17 | 0.625 (≈ 0.529 µg/mL) | 2.5 (≈ 2.11 µg/mL) | 2.5 (≈ 2.11 µg/mL) | 2.5 (≈ 2.11 µg/mL) | 0.79 ± .795 h | – | – | – | – | – |
| Cc1cccc(C[C@H](NC(=O)Nc2ccc(Cl)cc2F)C(=O)N[C@@H]2C(=O)N3C[C@H](OP(=O)(O)O)C[C@H]3C(=O)N3CCCC[C@H]3C(=O)N[C@@H](C)C(=O)N3C[C@H](C)C[C@H]3C(=O)O[C@H]2C)c1 [Compound 29, (2R,6S,8AS,14AS,16R,20S,21S,23AS)-20-((S)-2-(3-(4-CHLORO-2-FLUOROPHENYL)UREIDO)-3-(M-TOLYL)PROPANAMIDO)-2,6,21-TRIMETHYL-5,8,14,19,23-PENTAOXOOCTADECAHYDRO-1H,5H,14H,19H-PYRIDO[2,1-I]DIPYRROLO[2,1-C:2′,1′-L][1]OXA[4,7,10,13]TETRAAZACYCLOHEXADECIN-16-YL DIHYDROGEN PHOSPHATE] ({NH(4-Cl-2-F-phenyl)-CO}-[Phe(3-Me)][aThr][X5][Pip]A[Pro(4R-Me)]; ester 2-C) | 4.45 ± 0.45 | – | – | – | – | – | 20 | 2.5 | 5 | 10 | >4 h |
| Cc1ccc(NC(=O)N[C@@H](Cc2cccc(C)c2)C(=O)N[C@@H]2C(=O)N3C[C@H](O)C[C@H]3C(=O)N3CCN(C)C[C@H]3C(=O)N[C@@H](C)C(=O)N3C[C@H](C)C[C@H]3C(=O)O[C@H]2C)cc1 [Compound 30, (S)—N-((6AS,8R,12S,13S,15AS,17R,21S,23AS)-8-HYDROXY-2,13,17,21-TETRAMETHYL-6,11,15,20,23-PENTAOXOOCTADECAHYDRO-2H,6H,11H,15H-PYRAZINO[2,1-I]DIPYRROLO[2,1-C:2′,1′-L][1]OXA[4,7,10,13]TETRAAZACYCLOHEXADECIN-12-YL)-3-(M-TOLYL)-2-(3-(P-TOLYL)UREIDO)PROPANAMIDE] ({NH(4-Me-phenyl)-CO}-[Phe(3-Me)][aThr][Hyp][Piperazine(2S-CO,4-Me)]A[Pro(4R-Me)]; ester 2-C) | 3.41 ± 0.41 | – | – | – | – | – | 0.313 (≈ 0.256 µg/mL) | 2.5 (≈ 2.04 µg/mL) | 0.625 (≈ 0.511 µg/mL) | 2.5 (≈ 2.04 µg/mL) | 6.21 ± .215 h |
| Cc1cccc(C[C@H](NC(=O)Nc2ccc(Cl)cc2F)C(=O)N[C@@H]2C(=O)N3C[C@H](O)C[C@H]3C(=O)N3CCN(C)C[C@H]3C(=O)N[C@@H](C)C(=O)N3C[C@H](C)C[C@H]3C(=O)O[C@H]2C)c1 [Compound 31, (S)-2-(3-(4-CHLORO-2-FLUOROPHENYL)UREIDO)-N-((6AS,8R,12S,13S,15AS,17R,21S,23AS)-8-HYDROXY-2,13,17,21-TETRAMETHYL-6,11,15,20,23-PENTAOXOOCTADECAHYDRO-2H,6H,11H,15H-PYRAZINO[2,1-I]DIPYRROLO[2,1-C:2′,1′-L][1]OXA[4,7,10,13]TETRAAZACYCLOHEXADECIN-12-YL)-3-(M-TOLYL)PROPANAMIDE] ({NH(4-Cl-2-F-phenyl)-CO}-[Phe(3-Me)][aThr][Hyp][Piperazine(2S-CO,4-Me)]A[Pro(4R-Me)]; ester 2-C) | 3.07 ± 0.07 | < 0.02 | < 0.02 | < 0.02 | 0.078 (≈ 0.0667 µg/mL) | 2.65 ± .655 h | – | – | – | – | – |
| C[C@@H]1C[C@H]2C(=O)O[C@@H](C)[C@H](NC(=O)[C@H](Cc3cccc(Cl)c3)NC(=O)Nc3ccc(Cl)cc3F)C(=O)N3CCC[C@H]3C(=O)N3CCN(C)C[C@H]3C(=O)N[C@@H](C)C(=O)N2C1 [Compound 33] ({NH(4-Cl-2-F-phenyl)-CO}-[Phe(3-Cl)][aThr]P[Piperazine(2S-CO,4-Me)]A[Pro(4R-Me)]; ester 2-C) | 3.16 ± 0.16 | 0.078 (≈ 0.0671 µg/mL) | 0.039 (≈ 0.0335 µg/mL) | 0.078 (≈ 0.0671 µg/mL) | 0.078 (≈ 0.0671 µg/mL) | 0.80 ± .805 h | – | – | – | – | – |
